According to patent publication US7745489B2, “Compositions and methods for inhibition of phospholipase A2 mediated inflammation” (The Regents of the University of California, priority 2002, dated 2010):
Values joined by “and” are separate entries in the source; they are usually repeats but may differ in a detail not shown here. Equal values may be shown once. Read-outs that look alike come from different tables or passages of the source.

What was measured:
[1] = test system: carrageenan-induced paw edema; assay: Rat carrageenan-induced paw edema assay, ip, acute inflammation; format: in vivo; settings: after 3.5 h; for ED50: Rattus norvegicus, carrageenin paw edema test, ip
Procedure: The experiments were conducted on Fisher 344 female rats weighing 200-260 g. Acute anti-inflammatory activity was measured after 3.5 h by reduction of rat paw carrageenan edema, induced by injection of 0.1 mL carrageenan 2% (K100, commercially available) in sterilized saline intradermally into the right footpad. The examined compounds were administered intraperitoneally (ip) simultaneously. Control animals accepted only vehicle.

acetic acid writhing = assay: Acetic acid writhing test, analgesic activity; format: in vivo, rat
Procedure: The acetic acid writhing test was used to assess the analgesic activity in rats (reference drug sodium acetylsalicylate, at 1 mmol/kg, 93.4%). The inhibitors were given ip and 30 min later 1 mL/100 g body weight of 0.6% acetic acid was given ip.

cPLA2 = target: T1, cPLA2 (Homo sapiens, UniProt P47712); assay: cPLA2 activity on TX-100/PAPC mixed micelles, inhibition by 2-oxoamides; format: biochemical; settings: for XI(50) (mole fraction): Table 2, iPLA2
T1 sequence (P47712 1-749): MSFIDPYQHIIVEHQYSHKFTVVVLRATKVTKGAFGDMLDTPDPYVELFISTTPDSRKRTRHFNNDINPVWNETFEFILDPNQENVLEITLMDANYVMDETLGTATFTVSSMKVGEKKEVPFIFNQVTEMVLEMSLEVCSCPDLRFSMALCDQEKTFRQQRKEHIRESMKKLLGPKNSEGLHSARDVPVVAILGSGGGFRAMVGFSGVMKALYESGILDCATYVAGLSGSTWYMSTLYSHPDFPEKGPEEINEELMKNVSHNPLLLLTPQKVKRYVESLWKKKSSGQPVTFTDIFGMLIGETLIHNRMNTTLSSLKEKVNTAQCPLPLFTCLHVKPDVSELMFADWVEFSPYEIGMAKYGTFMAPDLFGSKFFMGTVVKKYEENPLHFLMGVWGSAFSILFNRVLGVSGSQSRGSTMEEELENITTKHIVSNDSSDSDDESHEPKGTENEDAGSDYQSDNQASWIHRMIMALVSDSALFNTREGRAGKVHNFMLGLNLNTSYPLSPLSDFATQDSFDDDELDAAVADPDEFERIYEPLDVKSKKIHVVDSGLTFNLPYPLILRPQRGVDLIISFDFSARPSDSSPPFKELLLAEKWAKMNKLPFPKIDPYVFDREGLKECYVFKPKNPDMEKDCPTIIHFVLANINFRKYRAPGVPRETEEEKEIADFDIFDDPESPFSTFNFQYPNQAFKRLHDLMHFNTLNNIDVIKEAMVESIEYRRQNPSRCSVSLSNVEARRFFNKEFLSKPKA

P388D1 cells = assay: PGE2 release from stimulated P388D1 macrophages; format: cell-based, murine; settings: for inhibition at 50 µM / IC50: Mus musculus; for inhibition at 50 µM: LPS 1 hour then PAF 15 min, maximal dosage tested 50 μM; for IC50: LPS 18 hr, inhibitor added 30 min prior to stimulation; for Block of PGE2 release: long-term LPS stimulation, 50 μM inhibitor, result in words
Procedure: cPLA2 and iPLA2 are expressed in macrophage cells. It was therefore of interest to determine if the PLA2 inhibitors of the invention acted on either or both of cPLA2 and iPLA2 in macrophages. To that end, P388D1 murine macrophages were maintained at 37° C. in a humidified 10% CO2 atmosphere. Cells were grown in Iscove's Modified Dulbecco's Medium (IMDM with 10% fetal calf serum (HyClone Labs, Provo Utah), 100 units/mL penicillin and 100 μg/mL streptomycin (Invitrogen, Carlsbad Calif.). Cells were routinely passaged every 2-3 days when the cells reached 75-80% confluence. Cells used for stimulation were plated at a density of 10^6 cells per well in standard 12 well tissue culture plates and were allowed to adhere overnight.
Macrophages were stimulated by treating P338D1 cells with either lipopolysaccharide (LPS) alone or LPS combined with platelet activating factor (PAF). Briefly, cells were washed twice with starvation media (IMDM containing 0.2% fetal calf serum, 100 units/mL penicillin and 100 μg/mL streptomycin) and then incubated with 1 mL of starvation media for one hour. Cells were then exposed to either 100 ng/mL LPS for 18 hours or 200 ng/mL LPS for one hour. Cells treated with 200 ng/mL LPS were then exposed to 100 nM PAF for 15 minutes. At the end of the stimulation, the media was removed from the cells, cleared of cellular debris by centrifugation and analyzed for prostaglandin E2 (PGE2) levels by enzyme-linked immunoassay (Cayman Chemical, Ann Arbor Mich.).
Inhibitor compounds were dissolved in DMSO and diluted into starvation media prior to addition to cells; the DMSO concentration was kept below 0.5% v/v in all studies. All inhibitors were added 30 minutes prior to stimulation.

[2] = test system: formalin induced flinching; assay: Formalin induced flinching; format: in vivo, rat; settings: intrathecal pretreatment 10 min; result in words
spontaneous movement = settings: rat, in vivo
[3] = mixed micelles TX-100 400 μM, PAPC 97 μM, PIP2 3 μM (0.6 mole %)

SMILES | XI(50) (mole fraction) (cPLA2) | XI(50) (cPLA2; [3]) | ED50 [1] [µmol/kg] | inhibition at 50 µM (P388D1 cells) [%] | IC50 (P388D1 cells) [µM] | Block of PGE2 release (P388D1 cells) | other results
COc1ccc2c(c1)c(CC(=O)O)c(C)n2C(=O)c1ccc(Cl)cc1 [indomethacin, reference compound] | – | – | – | – | – | – | % inhibition of carrageenan paw edema ([1]; reference drug at 0.011 mmol/kg): 47%
CC(=O)Oc1ccccc1C(=O)[O-].[Na+] [sodium acetylsalicylate, reference compound] | – | – | – | – | – | – | Analgesic activity (acetic acid writhing; reference drug at 1 mmol/kg): 93.4%
CCCCCCCCCCCCCCC(=O)C(=O)NCCCC(=O)O [OA1, 4-[(2-oxohexadecanoyl)amino]butanoic acid] | 0.017 ± 0.009 | 0.017±0.009 mole fraction | 10 | ~60 | 7.8 | completely block | Analgesic activity (acetic acid writhing; ip dose of 0.01 mmol/kg): 92.7%
CCCCCCCCCCC(=O)C(=O)N[C@@H](CCCC)CCC(=O)O [OA4, (4S)-4-[(2-Oxododecanoyl)amino]octanoic acid] | 0.009 ± 0.004 | 0.009±0.004 mole fraction and 0.009 mole fraction | 100 | ~60 | 5.8 | completely block | XI(50) (cPLA2; mixed micelles TX-100 3 mM, PAPC 1 mM, no PIP2 present): 0.0027±0.0012 mole fraction; Inhibition of cPLA2 (cPLA2; result in words): quite potent; Analgesic activity (acetic acid writhing; ip dose of 0.1 mmol/kg): 63%; melting point: 50 to 52 °C
O=C1O/C(=C/Br)CCC1c1cccc2ccccc12 (stereo not shown) [BEL, bromoenol lactone] | – | – | – | – | – | – | Effect on formalin induced flinching [2]: suppression; Effect on spontaneous movement / normal motor function (spontaneous movement): did have such an effect; Effect on spontaneous movement / normal motor function (spontaneous movement; 60 min): suppressed spontaneous movement
